62 compounds from US20230067929A1, “HETEROCYCLIC DERIVATIVES, PHARMACEUTICAL COMPOSITIONS AND THEIR USE IN THE TREATMENT, AMELIORATION OR PREVENTION OF CANCER” (Tolremo Therapeutics AG, priority 2018, published 2023) can be followed below.

What is called EC50 is the concentration giving half of the maximal effect.

The structures appear in SMILES notation.

The subject of this assay is A375 cells. Nature of the assay: A375 cell immunofluorescence assay (with 1 μM S1152 and 0.5 μM S1008), EC50. The note with it: 1 μM S1152 + 0.5 μM S1008, one day, ratio FL2/FL3 staining (sc-365823 antibody). The assay is classed as cell-based. As for the experimental part:
One thousand four hundred A375 cells were seeded in each well of a 384 well microplate. One day later they were treated with 1 μM S1152 (Selleckchem) in dimethyl sulfoxide, 0.5 μM S1008 (Selleckchem) and dose ranges of invention compounds for one day in Dulbecco's Modified Eagle's Medium supplemented with 10% fetal calf serum and 2 mM (2S)-2-amino-4-carbamoylbutanoic acid. Wells were incubated with 4% polyoxymethylene (Sigma Aldrich 158127) at ambient temperature. After ten minutes, polyoxymethylene was replaced with phosphate-buffered saline. After one minute phosphate-buffered saline was replaced with 0.2% polyethylene glycol octylphenyl ether in phosphate-buffered saline. After ten minutes at ambient temperature 0.2% polyethylene glycol octylphenyl ether in phosphate-buffered saline was replaced with 1% aminoethanoic acid in phosphate-buffered saline. […] After one hour at 37° C., the solution was replaced with phosphate-buffered saline twice. Phosphate-buffered saline was replaced with 2 μg/ml A-11029 (Invitrogen) in 0.05% polyoxyethylene (20) sorbitan monolaurate in phosphate-buffered saline. […] After one hour at ambient temperature in the dark, signal in wells was measured with a Acumen Cellista. 3,8-Diamino-5-[3-(diethylmethylammonio)propyl]-6-phenylphenanthridinium diiodide-positive objects were defined in FL3 (565-600 nm) with a perimeter between 50-800 μm and a total intensity of 10000-1000000 FLU. Signal in FL2 (500-530 nm) was measured in defined objects. A normalized ratio of total ln FL2 over total ln FL3 staining was log transformed. A non-linear regression (variable slope, 4 parameters) was used to calculate EC50 values using GraphPad Prism (Version 7.0d).
As for `CC(=O)N1CCCC(c2nc(Nc3ccnnc3)cc(-c3cccnc3)n2)C1` (centres unmarked), the EC50 was more than 10 µM.

In the case of `CCC(=O)N1CCCC(c2nc(Nc3cccc(F)c3)cc(-c3cccc(C(=O)NC)c3)n2)C1` (centres unmarked), the EC50 is more than 10 µM.

On to `CC(=O)N1CCCC(c2cc(Nc3cccc(F)c3)cc(-c3cccnc3)n2)C1` (centres unmarked), for which the half-maximal effective concentration (EC50) fell in the range of 1 to 10 µM.

With `CC(=O)N1CC(OCc2ccccc2)CC(c2nc(Nc3cccc(F)c3)cc(-c3cccnc3)n2)C1` (centres unmarked), the concentration for a half-maximal effect (EC50) was in the range of 1 to 10 µM.

As to `O=C1CCCC2C(c3nc(Nc4cccc(F)c4)cc(-c4cccnc4)n3)CCCN12` (centres unmarked), the EC50 fell in the range of 1 to 10 µM.

Regarding `CC(=O)N1CCCCC(c2nc(Nc3cccc(F)c3)cc(-c3cccnc3)n2)C1` (centres unmarked), the concentration giving a half-maximal response (EC50) was less than 1 µM.

On to `CC(=O)N1CCCC(c2nc(Nc3cnccn3)cc(-c3cccnc3)n2)C1` (centres unmarked), for which the EC50 is more than 10 µM.

On to `CCC(=O)N1CCCC(c2nc(Nc3cccc(F)c3)cc(C3CCCCC3)n2)C1` (centres unmarked), for which the EC50 was more than 10 µM.

On to `COc1cncc(-c2cc(Nc3cccc(Cl)c3)nc([C@@H]3CC[C@H](C)N(C(C)=O)C3)n2)c1`, for which the EC50 is less than 1 µM.

For the compound `CCC(=O)N1CCCC(c2nc(Nc3cccc(F)c3)cc(-c3ccccc3OC)n2)C1` (centres unmarked), the EC50 was more than 10 µM.

Regarding `O=CN1CCCC(c2nc(Nc3cccc(F)c3)cc(-c3cccnc3)n2)C1` (centres unmarked), the EC50 is more than 10 µM.

For the compound `CCC(=O)N1CCCC(c2nc(Nc3cccc(F)c3)cc(-c3cnn(C)c3)n2)C1` (centres unmarked), the EC50 was more than 10 µM.

Consider `COc1cncc(-c2cc(Nc3cccc(OCCOCCOCCNC(C)=O)c3)nc(C3CCCN(C(C)=O)C3)n2)c1` (centres unmarked), for which the EC50 fell in the range of 1 to 10 µM.

Consider `CNC(=O)c1cncc(-c2cc(Nc3cccc(F)c3)nc(C3CCCN(C(C)=O)C3)n2)c1` (centres unmarked), for which the EC50 is less than 1 µM.

For the compound `CC(=O)N1CCCC(c2nc(Nc3cccc(C)c3)cc(-c3c(C)noc3C)n2)C1` (centres unmarked), the EC50 lay within 1 to 10 µM.

For the compound `CC(=O)N1CCCC(c2nc(Nc3cccc(F)c3)cc(-c3cccnc3)n2)C1C` (centres unmarked), the concentration for a half-maximal effect (EC50) is more than 10 µM.

As to `CC(=O)N1CCCC(c2nc(Nc3ccccc3)cc(-c3cncc4[nH]ccc34)n2)C1` (centres unmarked), the EC50 is less than 1 µM.

As for `O=C1CCCC2CCC(c3nc(Nc4cccc(F)c4)cc(-c4cccnc4)n3)CN12` (centres unmarked), the 50% effective concentration (EC50) is more than 10 µM.

Turning to `O=C(C1CC1)N1CCCC(c2nc(Nc3cccc(F)c3)cc(-c3cccnc3)n2)C1` (centres unmarked), the EC50 is 1 to 10 µM.

With `CC(=O)N1CCCC(c2nc(NC34CC(C3)C4)cc(-c3cncc4[nH]ccc34)n2)C1` (centres unmarked), the EC50 lay within 1 to 10 µM.

Regarding `CCC(=O)N1CCCC(c2nc(NCCN(C)C)cc(Nc3cccc(F)c3)n2)C1` (centres unmarked), the EC50 is more than 10 µM.

In the case of `CC(=O)N1CCCC(c2cc(-c3cccnc3)nc(Nc3cccc(F)c3)n2)C1` (centres unmarked), the EC50 was 1 to 10 µM.

On to `COc1cncc(-c2cc(Nc3ccccc3)nc(C3CCCN(C(C)=O)C3)n2)c1` (centres unmarked), for which the EC50 was less than 1 µM.

In the case of `CCC(=O)N1CCCC(c2nc(Nc3cccc(F)c3)cc(-c3ccc(C(F)(F)F)nc3)n2)C1` (centres unmarked), the EC50 fell in the range of 1 to 10 µM.

For `CC(=O)N1CCCC(c2nc(Nc3cc(F)cc(F)c3)cc(-c3c(C)noc3C)n2)C1` (centres unmarked), the EC50 lay in the range of 1 to 10 µM.

Turning to `CC(=O)NCCOCCOCCNC(=O)c1ccc(-c2cc(Nc3cccc(F)c3)nc(C3CCCN(C(C)=O)C3)n2)cc1` (centres unmarked), the EC50 is more than 10 µM.

With `CCC(=O)N1CCCC(c2nc(-c3cccnc3)cc(N3CCOCC3)n2)C1` (centres unmarked), the EC50 was more than 10 µM.

On to `CC(=O)N1CCCC(c2nc(Nc3cccc(F)c3)cc(-c3cncc(N4CCN(C)CC4)c3)n2)C1` (centres unmarked), for which the 50% effective concentration (EC50) was more than 10 µM.

Consider `CC(=O)N1CCCC(c2nc(Nc3cccc(F)c3)cc(-c3ccncc3)n2)C1` (centres unmarked), for which the EC50 was in the range of 1 to 10 µM.

As to `CC(=O)N1CCCC(c2nc(Nc3cc(F)cc(F)c3)cc(-c3ccnnc3)n2)C1` (centres unmarked), the EC50 fell in the range of 1 to 10 µM.

Turning to `CC(=O)N1CCCC(c2nc(Nc3cc(F)cc(F)c3)cc(-c3cccnc3)n2)C1` (centres unmarked), the half-maximal effective concentration (EC50) is less than 1 µM.

As to `O=C(C(F)F)N1CCCC(c2nc(Nc3cccc(F)c3)cc(-c3cccnc3)n2)C1` (centres unmarked), the EC50 is more than 10 µM.

Regarding `CC(=O)N1C[C@H](c2nc(Nc3cccc(F)c3)cc(-c3cccnc3)n2)CC[C@@H]1C(F)(F)F`, the EC50 was less than 1 µM.

For `CC(=O)N1CCCC(c2nc(Nc3cncc(C)c3)cc(-c3cncc4[nH]ccc34)n2)C1` (centres unmarked), the EC50 lay in the range of 1 to 10 µM.

`CC(=O)N1CCCC(c2nc(Nc3cccc(F)c3)cc(-c3sc(C(C)C)nc3C)n2)C1` (centres unmarked): the EC50 was 1 to 10 µM.

For `CCC(=O)N1CCCC(c2nc(Nc3cccc(F)c3)cc(-c3cncc4ccccc34)n2)C1` (centres unmarked), the EC50 is more than 10 µM.

In the case of `CCC(=O)N1CCCC(c2nc(Nc3cccc(F)c3)cc(-c3cccc(-c4nnc(C)o4)c3)n2)C1` (centres unmarked), the EC50 was in the range of 1 to 10 µM.

For `CC(=O)N1CCCC(c2nc(Nc3cccnc3)cc(Nc3cccc(F)c3)n2)C1` (centres unmarked), the EC50 was in the range of 1 to 10 µM.

As to `CCC(=O)N1CCCC(c2nc(Nc3cccc(F)c3)cc(-c3c(C)noc3C)n2)C1` (centres unmarked), the concentration for a half-maximal effect (EC50) was 1 to 10 µM.

`COc1cccc(Nc2cc(-c3cncc(OC)c3)nc(C3CCCN(C(C)=O)C3)n2)c1` (centres unmarked): the EC50 fell in the range of 1 to 10 µM.

Consider `CC(=O)Nc1cncc(-c2cc(Nc3cccc(F)c3)nc(C3CCCN(C(C)=O)C3)n2)c1` (centres unmarked), for which the EC50 is less than 1 µM.

Regarding `CCC(=O)N1CCCC(c2nc(-c3cccnc3)cc(N(c3cccc(F)c3)C(C)C)n2)C1` (centres unmarked), the EC50 is more than 10 µM.

`CN1CC(c2nc(Nc3cccc(F)c3)cc(-c3cccnc3)n2)CCC1=O` (centres unmarked): the EC50 is more than 10 µM.

Regarding `CCC(=O)N1CCCC(c2nc(Nc3cccc(F)c3)cc(C3=CCCC3)n2)C1` (centres unmarked), the EC50 was more than 10 µM.

Take `CC(=O)NCCOCCOCCOc1cncc(-c2cc(Nc3cccc(F)c3)nc(C3CCCN(C(C)=O)C3)n2)c1` (centres unmarked): the EC50 lay within 1 to 10 µM.

`CCC(=O)N1CCCC(c2nc(NC)cc(-c3cccnc3)n2)C1` (centres unmarked): the EC50 is more than 10 µM.

On to `CC(=O)N1CCCC(c2nc(Nc3ccon3)cc(-c3cncc4[nH]ccc34)n2)C1` (centres unmarked), for which the half-maximal effective concentration (EC50) was more than 10 µM.

Take `CCC(=O)N1CCCC(c2nc(Nc3ccc(F)cc3)cc(-c3cccnc3)n2)C1` (centres unmarked): the EC50 is more than 10 µM.

In the case of `CC(=O)N1CCCC(c2nc(Nc3cccc(F)c3)cc(-c3cncc(C(=O)N4CCOCC4)c3)n2)C1` (centres unmarked), the half-maximal effective concentration (EC50) lay within 1 to 10 µM.

As to `CC(=O)N1CCCC(c2nc(Nc3cccc(F)c3)cc(-c3cnn[nH]3)n2)C1` (centres unmarked), the EC50 is more than 10 µM.

For `CC(=O)N1CCCC(c2nc(Nc3ccccc3)cc(-c3cncnc3)n2)C1` (centres unmarked), the EC50 lay within 1 to 10 µM.

As for `COc1cncc(-c2cc(Nc3cncc(C)c3)nc([C@@H]3CC[C@H](C)N(C(C)=O)C3)n2)c1`, the EC50 is less than 1 µM.

Turning to `CC(=O)N1CCCC(c2nc(Nc3cccc(F)c3)cc(-c3scc4c3OCCO4)n2)C1` (centres unmarked), the EC50 is less than 1 µM.

On to `CC(=O)N1CCCC(c2nc(Nc3cccc(F)c3)cc(-c3cccc4[nH]ccc34)n2)C1` (centres unmarked), for which the EC50 is less than 1 µM.

In the case of `CC(=O)N1CCC[C@@H](c2nc(Nc3cccc(F)c3)cc(-c3cccnc3)n2)C1`, the EC50 was less than 1 µM.

Regarding `CC(=O)N1CCCC(c2nc(Nc3cccc(F)c3)cc(-c3ccc(N4C[C@@H]5C[C@H]4CO5)nc3)n2)C1` (some centres unmarked), the EC50 fell in the range of 1 to 10 µM.

In the case of `CC(=O)N1CCCC(c2nc(Nc3cccc(F)c3)cc(-c3ccnnc3)n2)C1` (centres unmarked), the EC50 was in the range of 1 to 10 µM.

Regarding `COC(=O)N1CCOCC(c2nc(Nc3cccc(F)c3)cc(-c3cccnc3)n2)C1` (centres unmarked), the EC50 lay in the range of 1 to 10 µM.

Regarding `CC(=O)N1CCCC(c2nc(Nc3cccnc3)cc(-c3cccnc3)n2)C1` (centres unmarked), the EC50 was 1 to 10 µM.

Regarding `CC(=O)N1CCCC(c2nc(NC34CC(C3)C4)cc(-c3cncnc3)n2)C1` (centres unmarked), the 50% effective concentration (EC50) was more than 10 µM.

As to `CN1CCOC(c2nc(Nc3cccc(F)c3)cc(-c3cccnc3)n2)C1` (centres unmarked), the EC50 is more than 10 µM.

On to `CC(=O)N1CCCC(c2nc(Nc3cccc(F)c3)cc(-c3c(C)noc3C)n2)C1` (centres unmarked), for which the EC50 fell in the range of 1 to 10 µM.
